According to patent US10882859B2, “Kinase inhibitors” (Topivert Pharma Limited, priority 2015, dated 2021):
In brackets after ≈: the same amount, converted by molar mass. Where two headings read alike, the source gives them in different places.

What was measured:
[1] = target: JAK3 (Homo sapiens (Human), UniProt P52333); assay: KINOMEscan enzyme binding assay (DiscoveRx), JAK3; conditions: read-out: Dissociation Constant JAK3
Description: (§1) These assays may be conducted by DiscoveRx (formerly Ambit; San Diego, Calif.). The percentage inhibition produced by incubation with a test compound may be calculated relative to the non-inhibited control.

[2] = target: JAK1 (Homo sapiens (Human), UniProt P23458); assay: KINOMEscan enzyme binding assay (DiscoveRx), JAK1; conditions: read-out: Dissociation Constant JAK1
Description: as §1

[3] = target: TYK2 (Homo sapiens (Human), UniProt P29597); assay: KINOMEscan enzyme binding assay (DiscoveRx), TYK2; conditions: read-out: Dissociation Constant TYK2
Description: as §1

[4] = Solubility in fasted-state simulated colonic fluid (FaSSCoF); format: physicochemical; conditions: 25 °C, pH 6.5, fassgf or other biorelevant, thermodynamic from solid, pH 6.5, 25° C.
Description: The solubilities of compounds of the invention in FaSSCoF at pH 6.5 are determined using a modification of a previously-reported procedure (Vertzoni, M., et al. Pharm. Res. 2010, 27, 2187-2196). In place of the bile salt extract employed in the original procedure (which extract is no longer available), the modified procedure uses a mixture of sodium taurochlorate (0.15 g), glycocholic acid (0.15 g), ursodeoxycholic acid (0.05 g), cholic acid (0.05 g), and glycodeoxycholic acid (0.05 g). These five bile acids are ground together with a mortar and pestle to produce a fine white powder that is incorporated into the FaSSCoF, as outlined below.
FaSSCoF medium: Tris(hydroxymethyl)aminomethane (Tris; 0.275 g) and maleic acid (0.44 g) are dissolved in water (35 mL) to give a solution whose pH is adjusted to 6.5 by treatment with 0.5M NaOH (ca. 12 mL). The solution is then made up to 50 mL with water. A portion of this Tris/maleate buffer solution (ca. 25 mL) is added to a 0.5 L round-bottomed flask, before being treated with 0.00565 g of the bile acid mixture described above. Solutions of phosphatidylcholine (0.0111 g) in DCM (0.15 mL) and palmitic acid (0.0013 g) in DCM (0.15 mL) are added, then the organic solvent is evaporated off under reduced pressure at 40° C. until a clear solution, with no perceptible DCM odour, is achieved. The volume of the evaporated solution is adjusted to 50 mL by addition of the remainder of Tris/maleate buffer, then BSA (0.115 g) is added, before being dissolved by gentle agitation.
Solubility Determination: Test compounds are suspended in the pH 6.5 FaSSCoF medium to give a maximum final concentration of 2-10 mg/mL. The suspensions are equilibrated at 25° C. for 24 h, before being filtered through a glass fibre C filter. The filtrates are then diluted as appropriate for injection and quantification by HPLC with reference to a standard. Different volumes of the standard, diluted and undiluted sample solutions are injected and the solubilities are calculated using the peak areas determined by integration of the peak found at the same retention time as the principal peak in the standard injection.

[5] = tested on: Jurkat cells; assay: Cell cytotoxicity assay (propidium iodide, flow cytometry); format: cell-based, human; conditions: 24 h
Description: 1×10^5 Jurkat cells (immortalised human T lymphocytes) are added to the appropriate number of wells of a 96 well plate in 100 μL of media (RPMI supplemented with 10% foetal bovine serum). 1 μL of DMSO control (final concentration 1.0% v/v) or test compound (final concentration 20, 5 or 1 μg/mL) is added to the wells and incubated at 37° C., 5% CO2. After 24 hours, the plate is centrifuged at 1200 rpm for 3 minutes and the supernatant discarded. Cells are then resuspended in 150 μL (final concentration 7.5 μg/mL) of propidium iodide (PI) in PBS and incubated at 37° C., 5% CO2 for 15 minutes. After 15 minutes, cells are analysed by flow cytometry (BD accuri) using the FL3 window. The % viability is calculated as the % of cells that are PI negative in the test wells normalised to the DMSO control.

[6] = target: JAK2 (Homo sapiens (Human), UniProt O60674); assay: KINOMEscan enzyme binding assay (DiscoveRx), JAK2; conditions: read-out: Dissociation Constant JAK2
Description: as §1

[7] = Systemic pharmacokinetics and total colon tissue distribution after single oral administration; format: in vivo, male C57BL/6 mice; conditions: mice, oral 10 mg/kg; for concentration at 0.5 h / concentration at 1 h / concentration at 2 h / concentration at 4 h / concentration at 6 h / concentration at 8 h / concentration at 12 h / concentration at 24 h: male, C57BL/6, mouse
Description: Studies were conducted by Sai Life Sciences (Hinjewadi, Pune, India) to investigate the systemic pharmacokinetics and total colon tissue distribution of compounds of the invention following a single oral administration in male C57BL/6 mice.
A group of twenty four male mice were administered with a solution of test compound formulated at a dose of 10 mg/10 mL/kg in aqueous hydroxypropyl-β-cyclodextrin (20% w/v in water). Blood samples ([…]) were collected from retro-orbital plexus of each mouse under light isoflurane anaesthesia such that the samples were obtained at 0.5, 1, 2, 4, 6, 8, 12 and 24 hr. The blood samples were collected from a set of three mice at each time point in a labeled micro centrifuge tube containing K2EDTA as anticoagulant. Plasma samples were separated by centrifugation at 4000 rpm for 10 min and stored below −70° C. until bioanalysis. After collection of blood sample, animals were humanely euthanized by carbon dioxide asphyxiation to collect total colon tissues. The colons were flushed with cold PBS (pH7.4) to remove contents. The total colon tissues were homogenized with cold PBS (pH7.4) of twice the weight of colon tissue and stored below −70° C. Total volume was three times the total colon tissue weights. All samples were processed for analysis by protein precipitation using acetonitrile and analyzed with a fit-for-purpose LC-MS/MS method. Pharmacokinetic parameters were calculated using the non-compartmental analysis tool of Phoenix WinNonlin® (Version 6.3).

[8] = tested on: CD3/IL2 stimulated PBMC cells; assay: IFNγ release from CD3/IL2 stimulated PBMC cells; format: cell-based; conditions: Homo sapiens, CD3/IL2 stimulation, 48 h, ELISA
Description: PBMCs from healthy subjects are separated from whole blood using a density gradient (Lymphoprep, Axis-Shield Healthcare). Cells are added to a 96 well plate, and compound at the desired concentration added 2 hours prior to stimulation with a mixture of monoclonal antibody to CD3 (1 μg/ml, eBioscience) and human recombinant IL2 (10 ng/ml, Peprotech). After 48 hours incubation under normal tissue culture conditions, supernatants are collected and IFNγ release determined by Sandwich ELISA (Duo-set, R&D System). The IC50 is determined from the dose response curve.

[9] = total colon tissue, total colon, read-out: Mean total colon level
[10] = plasma, read-out: Mean plasma concentration

Sequence of JAK1 (P23458 whole entry): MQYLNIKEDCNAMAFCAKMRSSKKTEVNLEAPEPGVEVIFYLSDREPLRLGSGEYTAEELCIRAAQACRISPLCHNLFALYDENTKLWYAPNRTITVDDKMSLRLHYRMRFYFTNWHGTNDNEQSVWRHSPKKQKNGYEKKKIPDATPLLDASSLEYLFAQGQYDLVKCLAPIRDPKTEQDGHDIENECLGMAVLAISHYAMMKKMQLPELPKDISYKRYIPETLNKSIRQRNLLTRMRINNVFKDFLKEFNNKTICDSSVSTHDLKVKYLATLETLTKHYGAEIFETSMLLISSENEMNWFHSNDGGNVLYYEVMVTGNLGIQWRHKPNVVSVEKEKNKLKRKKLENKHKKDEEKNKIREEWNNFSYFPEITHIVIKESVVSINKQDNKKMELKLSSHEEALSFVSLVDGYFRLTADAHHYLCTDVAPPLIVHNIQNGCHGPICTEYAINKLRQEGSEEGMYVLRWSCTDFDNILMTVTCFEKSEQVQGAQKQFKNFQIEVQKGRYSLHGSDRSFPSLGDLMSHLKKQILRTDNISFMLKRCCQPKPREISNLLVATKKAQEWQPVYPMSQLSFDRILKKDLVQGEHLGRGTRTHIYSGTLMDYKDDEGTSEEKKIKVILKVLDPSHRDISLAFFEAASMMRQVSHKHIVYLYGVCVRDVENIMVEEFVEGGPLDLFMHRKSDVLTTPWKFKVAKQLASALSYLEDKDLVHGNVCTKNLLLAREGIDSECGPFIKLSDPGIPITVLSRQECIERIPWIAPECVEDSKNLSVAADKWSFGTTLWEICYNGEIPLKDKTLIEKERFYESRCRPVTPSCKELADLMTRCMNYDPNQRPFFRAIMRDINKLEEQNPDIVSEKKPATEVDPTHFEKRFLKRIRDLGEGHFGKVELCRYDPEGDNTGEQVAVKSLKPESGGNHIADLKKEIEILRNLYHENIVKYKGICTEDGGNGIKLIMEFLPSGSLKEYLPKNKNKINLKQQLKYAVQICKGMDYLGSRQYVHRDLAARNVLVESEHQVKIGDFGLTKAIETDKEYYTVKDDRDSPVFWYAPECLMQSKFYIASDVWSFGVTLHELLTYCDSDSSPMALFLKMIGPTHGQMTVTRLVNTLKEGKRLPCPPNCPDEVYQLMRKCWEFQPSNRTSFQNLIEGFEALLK
Sequence of JAK2 (O60674 whole entry): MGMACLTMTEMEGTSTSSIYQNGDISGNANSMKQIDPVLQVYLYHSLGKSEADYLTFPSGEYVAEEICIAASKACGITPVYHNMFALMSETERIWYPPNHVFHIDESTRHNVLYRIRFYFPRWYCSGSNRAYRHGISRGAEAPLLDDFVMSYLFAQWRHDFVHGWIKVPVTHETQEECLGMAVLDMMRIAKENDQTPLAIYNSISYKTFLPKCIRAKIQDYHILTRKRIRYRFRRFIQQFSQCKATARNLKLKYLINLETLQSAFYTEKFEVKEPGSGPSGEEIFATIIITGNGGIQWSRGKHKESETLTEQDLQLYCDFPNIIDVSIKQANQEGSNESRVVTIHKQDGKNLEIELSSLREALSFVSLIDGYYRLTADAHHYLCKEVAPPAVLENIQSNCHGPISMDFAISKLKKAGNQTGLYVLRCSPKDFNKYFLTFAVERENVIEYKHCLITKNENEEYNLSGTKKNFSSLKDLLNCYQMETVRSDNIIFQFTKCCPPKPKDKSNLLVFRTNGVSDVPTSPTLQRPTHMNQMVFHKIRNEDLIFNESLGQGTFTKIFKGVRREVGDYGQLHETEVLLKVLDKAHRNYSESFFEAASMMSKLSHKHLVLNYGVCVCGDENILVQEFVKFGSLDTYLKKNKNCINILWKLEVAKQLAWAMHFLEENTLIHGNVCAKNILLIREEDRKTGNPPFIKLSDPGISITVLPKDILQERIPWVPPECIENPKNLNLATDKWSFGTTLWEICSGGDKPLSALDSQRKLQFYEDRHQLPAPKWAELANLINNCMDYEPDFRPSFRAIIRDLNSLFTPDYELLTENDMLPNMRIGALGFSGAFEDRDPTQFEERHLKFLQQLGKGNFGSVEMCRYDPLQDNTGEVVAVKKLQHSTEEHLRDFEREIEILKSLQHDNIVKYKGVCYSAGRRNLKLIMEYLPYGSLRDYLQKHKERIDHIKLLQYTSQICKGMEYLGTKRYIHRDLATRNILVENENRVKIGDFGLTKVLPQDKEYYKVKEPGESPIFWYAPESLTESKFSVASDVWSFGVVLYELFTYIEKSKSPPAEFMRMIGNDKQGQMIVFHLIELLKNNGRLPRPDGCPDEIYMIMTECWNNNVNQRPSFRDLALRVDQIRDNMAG
Sequence of JAK3 (P52333 whole entry): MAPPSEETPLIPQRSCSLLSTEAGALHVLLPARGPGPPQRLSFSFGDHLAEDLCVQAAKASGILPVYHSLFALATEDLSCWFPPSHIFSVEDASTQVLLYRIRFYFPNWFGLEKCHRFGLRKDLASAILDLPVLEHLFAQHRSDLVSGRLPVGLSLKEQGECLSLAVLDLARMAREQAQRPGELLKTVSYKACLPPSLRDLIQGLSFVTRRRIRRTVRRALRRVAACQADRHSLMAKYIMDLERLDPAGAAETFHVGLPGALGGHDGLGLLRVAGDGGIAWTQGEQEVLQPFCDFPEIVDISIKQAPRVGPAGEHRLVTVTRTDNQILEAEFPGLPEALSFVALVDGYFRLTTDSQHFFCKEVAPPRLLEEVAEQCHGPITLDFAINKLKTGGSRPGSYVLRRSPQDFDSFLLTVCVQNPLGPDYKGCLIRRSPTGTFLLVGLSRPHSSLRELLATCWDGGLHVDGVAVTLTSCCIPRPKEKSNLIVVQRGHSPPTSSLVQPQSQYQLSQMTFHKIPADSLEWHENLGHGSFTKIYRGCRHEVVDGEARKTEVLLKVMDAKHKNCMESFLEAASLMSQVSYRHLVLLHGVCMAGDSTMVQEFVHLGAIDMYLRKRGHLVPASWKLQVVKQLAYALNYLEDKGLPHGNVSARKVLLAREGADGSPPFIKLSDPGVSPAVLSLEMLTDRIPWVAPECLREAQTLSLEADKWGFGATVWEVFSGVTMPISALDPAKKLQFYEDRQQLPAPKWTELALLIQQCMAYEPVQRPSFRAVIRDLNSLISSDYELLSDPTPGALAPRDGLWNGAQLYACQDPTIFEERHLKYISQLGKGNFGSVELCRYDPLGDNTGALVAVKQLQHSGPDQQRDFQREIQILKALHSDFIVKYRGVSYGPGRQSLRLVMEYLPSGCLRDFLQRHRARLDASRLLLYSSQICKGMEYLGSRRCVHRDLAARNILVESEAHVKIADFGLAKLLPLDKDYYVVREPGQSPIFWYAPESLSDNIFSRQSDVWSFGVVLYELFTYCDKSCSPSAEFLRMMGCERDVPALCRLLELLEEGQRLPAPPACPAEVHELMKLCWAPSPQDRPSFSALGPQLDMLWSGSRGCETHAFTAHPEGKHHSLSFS
Sequence of TYK2 (P29597 whole entry): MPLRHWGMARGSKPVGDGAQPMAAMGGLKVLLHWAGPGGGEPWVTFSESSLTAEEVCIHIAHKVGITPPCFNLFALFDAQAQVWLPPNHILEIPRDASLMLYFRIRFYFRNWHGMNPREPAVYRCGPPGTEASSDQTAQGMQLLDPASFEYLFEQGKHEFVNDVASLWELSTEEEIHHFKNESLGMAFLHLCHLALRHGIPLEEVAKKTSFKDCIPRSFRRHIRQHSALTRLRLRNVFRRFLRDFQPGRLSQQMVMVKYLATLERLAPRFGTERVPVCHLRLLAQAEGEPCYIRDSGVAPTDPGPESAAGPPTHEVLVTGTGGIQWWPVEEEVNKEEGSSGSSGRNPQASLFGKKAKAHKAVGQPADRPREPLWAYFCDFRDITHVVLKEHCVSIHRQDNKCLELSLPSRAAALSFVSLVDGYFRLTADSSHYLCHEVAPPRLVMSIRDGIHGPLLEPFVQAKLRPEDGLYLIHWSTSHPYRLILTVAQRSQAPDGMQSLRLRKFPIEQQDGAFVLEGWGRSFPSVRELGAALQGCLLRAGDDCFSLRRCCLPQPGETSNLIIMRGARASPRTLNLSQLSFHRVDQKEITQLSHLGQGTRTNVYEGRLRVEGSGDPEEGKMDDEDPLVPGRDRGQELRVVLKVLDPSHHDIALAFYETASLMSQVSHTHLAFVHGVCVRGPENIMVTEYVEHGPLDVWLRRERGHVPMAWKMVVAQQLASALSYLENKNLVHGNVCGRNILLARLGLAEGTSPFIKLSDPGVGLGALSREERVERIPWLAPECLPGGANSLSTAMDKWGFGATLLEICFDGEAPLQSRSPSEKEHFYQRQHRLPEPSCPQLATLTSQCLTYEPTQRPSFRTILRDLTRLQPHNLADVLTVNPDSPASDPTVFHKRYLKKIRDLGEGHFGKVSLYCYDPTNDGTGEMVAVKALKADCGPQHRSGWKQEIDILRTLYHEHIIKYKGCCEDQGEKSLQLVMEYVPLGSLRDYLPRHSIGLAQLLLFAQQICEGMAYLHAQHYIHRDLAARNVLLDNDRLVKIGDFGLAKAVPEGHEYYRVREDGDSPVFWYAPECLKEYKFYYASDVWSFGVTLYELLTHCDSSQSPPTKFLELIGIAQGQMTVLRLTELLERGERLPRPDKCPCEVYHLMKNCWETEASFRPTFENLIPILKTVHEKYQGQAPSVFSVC

`CCc1cc(O)c(F)cc1-c1ccc2c(-c3nc4c([nH]3)CCN(C(=O)N3CCOCC3)C4)n[nH]c2c1` [Example 1, (2-(6-(2-Ethyl-5-fluoro-4-hydroxyphenyl)-1H-indazol-3-yl)-1,4,6,7-tetrahydro-5H-imidazo[4,5-c]pyridin-5-yl)(morpholino)methanone] gave a Kd [1] of 0.098 nM, a Kd [2] of 0.62 nM and a Kd [3] of 0.11 nM. For the same compound, the solubility thermodynamic at 24 h ([4]; Run 1, read-out: pH 6.5 FaSSCoF Solubility, Run 1) was 40 µg/mL (≈ 81.5 µM), the solubility thermodynamic at 24 h ([4]; Run 2, read-out: pH 6.5 FaSSCoF Solubility, Run 2) was 20 µg/mL (≈ 40.8 µM) and the “% viability at 1 μg/mL” value [5] was 40%. For the same compound, the Kd [6] was 0.052 nM, the concentration at 0.5 h [7, 9] was 327 ng/g and the concentration at 1 h [7, 9] was 984 ng/g. It also gave a concentration at 2 h [7, 9] of 19700 ng/g, a concentration at 4 h [7, 9] of 4690 ng/g and a concentration at 6 h [7, 9] of 8440 ng/g. It also gave a concentration at 8 h [7, 9] of 11900 ng/g, a concentration at 12 h [7, 9] of 4790 ng/g and a concentration at 24 h [7, 9] of 350 ng/g. The concentration at 0.5 h [7, 10] was 6.1 ng/mL, the concentration at 1 h [7, 10] was 1.8 ng/mL and the concentration at 2 h [7, 10] was 1.9 ng/mL. It also gave a concentration at 4 h [7, 10] of 0 ng/mL, a concentration at 6 h [7, 10] of 0 ng/mL and a concentration at 8 h [7, 10] of 0 ng/mL. The concentration at 12 h [7, 10] was 0 ng/mL, the concentration at 24 h [7, 10] was 0 ng/mL and the Systemic plasma exposure ([7]; plasma) was “very low”. The “Colonic exposure AUC0-24 h” value ([7]; total colon) was 132,979 h·ng/g and the IC50 [8] was 3.6 nM.
